According to patent publication US6436441B1, “Hydrogel-forming sustained-release preparation” (Yamanouchi Pharmaceutical Co., Ltd., priority 1992, dated 2002):

Conditions: JP method, 25 ± 5° C.; the additive itself

## O=C(CO)[C@@H](O)[C@H](O)[C@H](O)CO [D-Fructose]
  Solubility (volume of water required for dissolving 1 gram): 1 mL
